Earlier results as cited in Sander's compilation of Henry's law constants.
Values joined by “and” are separate entries in the source; they are usually repeats but may differ in a detail not shown here. Equal entries are not always repeated.

Assays:
[1] = Henry solubility constant Hcp at 310 K (mol/(m3 Pa)); conditions: reference: Harris (1951); cited value
[2] = Henry solubility constant Hcp at 311 K (mol/(m3 Pa)); conditions: reference: Orcutt and Seevers (1937b); cited value
[3] = Henry solubility constant Hcp at 293 K (mol/(m3 Pa)); conditions: cited value
[4] = Henry solubility constant Hcp at 298.15 K (mol/(m3 Pa)); conditions: cited value
[5] = Henry solubility constant Hcp at 277 K (mol/(m3 Pa)); conditions: reference: Roth (1942); cited value
[6] = Henry solubility constant Hcp at 295 K (mol/(m3 Pa)); conditions: reference: Schwartz (1986); cited value
[7] = reference: Burkholder et al. (2015)
[8] = reference: Burkholder et al. (2019)
[9] = reference: Sander et al. (2006)
[10] = reference: Sander et al. (2011)

[N-]=[N+]=O [dinitrogen monoxide]
Henry solubility constant Hcp at 310 K [1]: 0.00017 | Henry solubility constant Hcp at 311 K [2]: 0.00017 | Henry solubility constant Hcp at 293 K ([3]; reference: Macintosh et al. (1958)): 0.0003 | Henry solubility constant Hcp at 293 K ([3]; reference: Nunn (1958)): 0.00028 | Henry solubility constant Hcp [4, 7]: 0.00024 | Henry solubility constant Hcp [4, 8]: 0.00024 | Henry solubility constant Hcp ([4]; reference: Gordon (1895)): 0.00026 | Henry solubility constant Hcp [4, 9]: 0.00024 | Henry solubility constant Hcp [4, 10]: 0.00024 | Henry solubility constant Hcp ([4]; reference: Young (1981b)): 0.00024

ClOCl [dichlorine monoxide]
Henry solubility constant Hcp at 277 K [5]: 0.07 | Henry solubility constant Hcp [4]: 0.034 and 0.076

CC(=O)OO[N+](=O)[O-] [peroxyacetyl nitrate]
Henry solubility constant Hcp at 295 K [6]: 0.036 | Henry solubility constant Hcp [4, 7]: 0.028 | Henry solubility constant Hcp [4, 8]: 0.028 | Henry solubility constant Hcp ([4]; reference: Gaffney and Senum (1984)): 0.036 | Henry solubility constant Hcp ([4]; reference: Leu and Zhang (1999)): 0.029 | Henry solubility constant Hcp ([4]; reference: Pandis and Seinfeld (1989)): 0.029 | Henry solubility constant Hcp [4, 9]: 0.028 | Henry solubility constant Hcp [4, 10]: 0.028
